These results are taken from ChEMBL document CHEMBL1201862, “PubChem BioAssay data set” (2004).

Test systems include HCT-15; SK-MEL-5; SF-295; Malme-3M; HOP-62; RPMI-8226; OVCAR-3; M14; SF-539; CCRF-CEM; SK-MEL-2; UACC-257; 786-0; IGROV-1; HL-60; LOX IMVI; NCI-H522.
Assay in all cases: NCI-60 cell line screen, 48 h

Each structure is given as a SMILES string.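 Briefly, cells in 96-well plates were exposed to five compound concentrations for 48 h, and endpoints were estimated by linear interpolation. GI50: concentration for 50% inhibition of growth.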 Calls of active or inactive are those of the source. No stated cut-off is given here; in the data, active = GI50 up to about 1.1 µM and inactive = higher.

For `CCOC(=O)C(C)(c1c(C)[nH]c2ccccc12)c1c(C)[nH]c2ccccc12`, the GI50 is 15 µM in the experiment with HCT-15; 15.7 µM (inactive) in the experiment on SK-MEL-5; 14 µM (inactive) with SF-295; 17.3 µM (inactive) in the experiment with Malme-3M; 18.9 µM (inactive) with HOP-62; 16.8 µM (inactive) in the experiment with RPMI-8226. For the same compound, the GI50 with OVCAR-3 was 16 µM (inactive); in the experiment with M14 it was 14.4 µM (inactive); in the experiment on SF-539, 18.7 µM (inactive); in the experiment on CCRF-CEM, 17.9 µM (inactive); in the experiment with SK-MEL-2 it was 18.8 µM (inactive); in the experiment with UACC-257, 14.8 µM (inactive). Further, the GI50 is 19.1 µM (inactive) in the experiment with 786-0, 20.6 µM (inactive) with IGROV-1 and 12.1 µM (inactive) in the experiment with HL-60.

As to `COC1(OC)C2(Cl)C(Cl)=C(Cl)C1(Cl)C1C2C2CC1(C(=O)O)c1ccccc12` (configuration not stated), the GI50 was 23.8 µM with HCT-15; 15.9 µM (inactive) with SK-MEL-5; 25.4 µM (inactive) in the experiment with SF-295; 16 µM (inactive) in the experiment with Malme-3M; 23.4 µM (inactive) with HOP-62; 16.7 µM (inactive) in the experiment on LOX IMVI. The GI50 was 17 µM (inactive) with RPMI-8226; 18.2 µM (inactive) in the experiment on OVCAR-3; 17.9 µM (inactive) in the experiment with M14; 4.74 µM (inactive) with CCRF-CEM; 14.6 µM (inactive) in the experiment on UACC-257; 16.4 µM (inactive) in the experiment on 786-0. The results for the GI50 in the experiment on IGROV-1 and in the experiment on HL-60 were 28.8 µM (inactive) and 22.1 µM (inactive), respectively.

Regarding `CCSC1(SCC)CCN(/C=N/C(C)(C)C)C1`, the GI50 in the experiment on HCT-15 was above 100 µM; with SK-MEL-5, > 100 µM (inactive); in the experiment with SF-295 it was > 100 µM (inactive); in the experiment on Malme-3M, > 100 µM (inactive); in the experiment with HOP-62 it was > 100 µM (inactive); in the experiment on LOX IMVI it was 52.6 µM (inactive). Further, the GI50 with OVCAR-3 is > 100 µM (inactive); in the experiment on NCI-H522, > 100 µM (inactive); in the experiment on M14, > 100 µM (inactive); in the experiment with SF-539, > 100 µM (inactive); with CCRF-CEM, 76.4 µM (inactive); in the experiment with SK-MEL-2, > 100 µM (inactive). Further, the GI50 in the experiment with UACC-257 is > 100 µM (inactive); in the experiment with 786-0, > 100 µM (inactive); in the experiment with IGROV-1, > 100 µM (inactive); in the experiment with HL-60, 29.7 µM (inactive).

For `CCCC12Cc3c(OC)ccc(OC)c3CC(Cc3c(OC)ccc(OC)c31)C2=O` (configuration not stated), the GI50 in the experiment on HCT-15 is above 100 µM; in the experiment on SK-MEL-5, 73.5 µM (inactive); with SF-295 it was > 100 µM (inactive); in the experiment on Malme-3M it was 69.3 µM (inactive); in the experiment on HOP-62, > 100 µM (inactive); in the experiment with OVCAR-3 it was > 100 µM (inactive). Also, the GI50 was 81.5 µM (inactive) with NCI-H522; > 100 µM (inactive) in the experiment with M14; > 100 µM (inactive) in the experiment on SF-539; > 100 µM (inactive) in the experiment with CCRF-CEM; > 100 µM (inactive) in the experiment with SK-MEL-2; > 100 µM (inactive) with UACC-257. Also, the figures for the GI50 with 786-0 and with HL-60 were > 100 µM (inactive) and 7.21 µM (inactive), respectively.

As for `Cc1cc2c(=O)cc(-c3cccs3)oc2c(C(=O)O)c1C`, the GI50 in the experiment with HCT-15 is 42.8 µM; in the experiment with SK-MEL-5 it was > 100 µM (inactive); in the experiment with SF-295, > 100 µM (inactive); in the experiment on Malme-3M, > 100 µM (inactive); in the experiment on HOP-62, > 100 µM (inactive); in the experiment with LOX IMVI, > 100 µM (inactive). The GI50 in the experiment on RPMI-8226 is 59.3 µM (inactive); in the experiment with OVCAR-3 it was > 100 µM (inactive); in the experiment with NCI-H522, 21.2 µM (inactive); with M14, > 100 µM (inactive); with SF-539, > 10 µM (inactive); in the experiment on CCRF-CEM, 64.7 µM (inactive). For the same compound, the GI50 in the experiment with SK-MEL-2, with UACC-257, with 786-0 and in the experiment on IGROV-1 was > 100 µM (inactive) each time.

For the compound `COc1ccc2c(c1OC)C1=C(C2=O)c2cc3c(cc2CCN1)OCO3`, the GI50 with HCT-15 was 29.4 µM; in the experiment with SK-MEL-5, 33.1 µM (inactive); with SF-295 it was 33.5 µM (inactive); in the experiment on Malme-3M, 69.3 µM (inactive); with HOP-62, 48.6 µM (inactive); in the experiment on LOX IMVI it was 24.8 µM (inactive). Moreover, the GI50 is 23.1 µM (inactive) in the experiment with RPMI-8226; 31.6 µM (inactive) in the experiment with OVCAR-3; 37.3 µM (inactive) in the experiment with M14; 28.2 µM (inactive) in the experiment on SF-539; 26.1 µM (inactive) with CCRF-CEM; 29 µM (inactive) in the experiment with SK-MEL-2. Also, the GI50 with UACC-257 was 34.5 µM (inactive); with 786-0 it was 31.9 µM (inactive); in the experiment with IGROV-1, 68.1 µM (inactive); in the experiment with HL-60, 19.2 µM (inactive).

On to `COC12OCCN(C)C1=CC(=O)C1(C)N=NCC12` (configuration not stated), for which the GI50 with HCT-15 is above 100 µM; in the experiment with SK-MEL-5 it was > 100 µM (inactive); with SF-295, > 100 µM (inactive); in the experiment with Malme-3M it was > 100 µM (inactive); in the experiment with LOX IMVI, > 100 µM (inactive); in the experiment on RPMI-8226 it was > 100 µM (inactive). The GI50 in the experiment with OVCAR-3, in the experiment on NCI-H522, in the experiment on M14, in the experiment with SF-539, with CCRF-CEM and in the experiment on UACC-257 was > 100 µM (inactive) each time. The GI50 with 786-0 and in the experiment on IGROV-1 was > 100 µM (inactive) in each case.

Turning to `CC(O[Si](C)(C)C)C1C=CC(C)n2c(=O)n(-c3ccccc3)c(=O)n21` (configuration not stated), the GI50 in the experiment with HCT-15 was above 100 µM; in the experiment with SK-MEL-5, > 100 µM (inactive); in the experiment with SF-295 it was > 100 µM (inactive); in the experiment with Malme-3M it was > 100 µM (inactive); in the experiment with HOP-62, > 100 µM (inactive); with RPMI-8226, > 100 µM (inactive). The GI50 in the experiment with OVCAR-3, in the experiment on M14, in the experiment on SF-539, with SK-MEL-2, in the experiment on 786-0 and with IGROV-1 was > 100 µM (inactive) each time. The GI50 in the experiment with HL-60 is > 100 µM (inactive).

`COc1ccc(/C=N/Nc2nc(-c3cc4oc(=O)n(C)c4cc3Cl)cs2)cc1OC`: the GI50 in the experiment on HCT-15 was 6.65 µM; in the experiment with SK-MEL-5, 2.36 µM (inactive); in the experiment on SF-295 it was 9.23 µM (inactive); in the experiment on Malme-3M, 10.5 µM (inactive); with HOP-62 it was 36.2 µM (inactive); in the experiment on LOX IMVI, 28.6 µM (inactive). The GI50 in the experiment on RPMI-8226 is 8.26 µM (inactive); in the experiment with OVCAR-3 it was 9.95 µM (inactive); in the experiment on M14, 78.5 µM (inactive); in the experiment on SF-539 it was 48.3 µM (inactive); in the experiment with CCRF-CEM, 91 µM (inactive); in the experiment on SK-MEL-2 it was 53.1 µM (inactive). Moreover, the GI50 in the experiment with UACC-257 is 4.27 µM (inactive); in the experiment on 786-0, 33.4 µM (inactive); in the experiment on IGROV-1 it was 14 µM (inactive); in the experiment on HL-60 it was 15.7 µM (inactive).

As to `Cc1ccc(S(=O)(=O)N/N=C(/CC(=O)c2c(C)[n+]([O-])c3ccccc3[n+]2[O-])C(=O)Nc2ccccc2C)cc1`, the GI50 in the experiment on HCT-15 was above 100 µM; in the experiment with SF-295, > 100 µM (inactive); in the experiment on Malme-3M it was > 100 µM (inactive); in the experiment on HOP-62, > 100 µM (inactive); in the experiment with RPMI-8226, > 100 µM (inactive); with OVCAR-3, > 100 µM (inactive). The GI50 in the experiment with NCI-H522, with M14, in the experiment on SF-539, with SK-MEL-2, with UACC-257 and in the experiment on 786-0 was > 100 µM (inactive) each time. In addition, in the experiment on IGROV-1, the GI50 is > 100 µM (inactive).
